Patent US6602888B2, “Use of α1C specific compounds to treat benign prostatic hyperplasia” (Synaptic Pharmaceutical Corporation, priority 1992, dated 2003)
Where two headings read alike, the source gives them in different places.

What was measured:
[1] = target: T1, human histamine H2 receptor (Homo sapiens, UniProt P25021); experiment: [3H]tiotidine binding, histamine H2 receptor; conditions: for Ki: read-out: Histamine H2 (pK1) (converted)
T1 construct: host or cells: COS-7, transient, DEAE-dextran
Description: The coding sequence of the human H2 receptor was obtained from a human placenta genomic library, and cloned into the cloning site of PCEXV-3 eukaryotic expression vector. The plasmid DNA for the H2 receptor is designated pcEXV-H2, and was deposited on Nov. […] This construct was transfected into COS-7 cells by the DEAE-dextran method.

[2] = target: T2, human α1B adrenergic receptor (Homo sapiens, UniProt P35368); experiment: Radioligand binding, [3H]prazosin, cloned human α1B adrenergic receptor
T2 sequence (P35368 1-520): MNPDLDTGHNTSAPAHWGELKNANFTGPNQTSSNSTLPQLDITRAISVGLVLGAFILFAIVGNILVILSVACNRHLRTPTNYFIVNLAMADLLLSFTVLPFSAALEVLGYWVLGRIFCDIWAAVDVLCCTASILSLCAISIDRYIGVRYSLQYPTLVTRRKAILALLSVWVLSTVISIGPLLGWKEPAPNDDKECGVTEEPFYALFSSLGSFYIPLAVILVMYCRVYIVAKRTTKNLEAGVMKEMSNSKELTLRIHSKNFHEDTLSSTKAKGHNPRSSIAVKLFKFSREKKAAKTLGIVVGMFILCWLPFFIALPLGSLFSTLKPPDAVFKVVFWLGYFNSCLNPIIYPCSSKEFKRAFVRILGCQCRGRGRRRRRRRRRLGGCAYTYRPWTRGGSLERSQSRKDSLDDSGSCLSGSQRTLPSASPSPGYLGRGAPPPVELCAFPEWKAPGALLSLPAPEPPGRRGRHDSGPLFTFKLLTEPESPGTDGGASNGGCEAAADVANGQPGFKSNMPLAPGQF

T1 sequence (P25021 whole entry): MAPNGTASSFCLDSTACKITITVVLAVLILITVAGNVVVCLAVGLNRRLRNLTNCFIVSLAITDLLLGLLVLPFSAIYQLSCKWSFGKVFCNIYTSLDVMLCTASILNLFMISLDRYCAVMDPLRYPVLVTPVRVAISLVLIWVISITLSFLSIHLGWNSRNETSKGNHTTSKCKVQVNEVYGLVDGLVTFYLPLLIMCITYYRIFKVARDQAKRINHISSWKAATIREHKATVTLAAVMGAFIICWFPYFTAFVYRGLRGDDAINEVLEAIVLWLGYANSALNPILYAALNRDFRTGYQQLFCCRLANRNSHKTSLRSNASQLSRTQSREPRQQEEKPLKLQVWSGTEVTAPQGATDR

Row | Molecule | Ki ([1]; Table 2, cloned human receptor) | Alpha-1 Adrenergic a1B (pK1) ([2]; Table 2, cloned human receptor) | Histamine H2 (pK1) ([1]; Table 2, cloned human receptor) | other results
1 | COc1ccc(CCNCC2CCc3ccccc3C2)cc1 (stereo not drawn) [Compound 11, 2-[(4-Methoxyphenethyl)aminomethyl]-1,2,3,4-tetrahydronaphthalene] | 35.5 nM | 7.14 |  | Ki [2]: 72.4 nM
2 | O=C(CCCN1CCC(NC(=O)c2ccccc2)CC1)c1ccc(Cl)cc1 [Compound 7] |  | 7.18 | 6.02 | Human Alpha-1 Adrenergic (pK1) a1B ([2]; Table 1, cloned human receptor): 7.18
3 | COc1ccccc1N1CCN(CCCNc2c(C)c(=O)n(C)c(=O)n2C)CC1 [5-Methyl-Urapidil, 5-methylurapidil, reference compound] |  |  | 4.47 | Alpha-1 Adrenergic a1B (pK1) [2]: 6.77; Human Alpha-1 Adrenergic (pK1) a1B [2]: 6.77
4 | O=C(NC1CCN(CCc2c[nH]c3ccccc23)CC1)c1ccccc1 [Indoramin, reference compound] | 2340 nM |  |  | 
5 | C=Cc1sc2ccc(Cl)c3c2c1CN(C)CC3 [SKF-104856, 7-Chloro-2-ethenyl-3,4,5,6-tetrahydro-4-methylthieno[4,3,2-ef][3]benzazepine, reference compound] | 1450 nM |  |  | 
6 | O=C(CCCN1CCC(NC(=O)c2ccccc2)CC1)c1ccccc1 [Compound 9] |  | 6.76 | 5.44 | Human Alpha-1 Adrenergic (pK1) a1B ([2]; Table 1, cloned human receptor): 6.76
7 | 4-fluoro-4-(8-fluoro-1,3,4,5-tetrahydro-2H-pyrido[4,3-b]indol-2-yl)butyrophenone hydrochloride [Compound A-30360, reference compound] |  |  |  | Histamine H2 (pK1) [1]: 5.77; Alpha-1 Adrenergic a1B (pK1) [2]: 7.86; Human Alpha-1 Adrenergic (pK1) a1B [2]: 7.86
8 | COC(=O)C1=C(C)NC(C)=C(C(=O)OCCCN2CCC(c3ccccc3)(c3ccccc3)CC2)C1c1ccc([N+](=O)[O-])cc1.Cl (stereo not drawn) [Compound 8, 2,6-Dimethyl-4-(4-nitrophenyl)-1,4-dihydropyridine-3,5-dicarboxylic acid [3-(4,4-diphenylpiperidin-1-yl)propyl] ester methyl ester hydrochloride] | 776 nM |  |  | 
